The text below walks through data of PubChem BioAssay (NCI).

Assay in all cases: NCI tumour cell line growth inhibition, 48 h
Experiment [1] deals with OVCAR-4 ovarian.
For experiment [2], the system named is U251 CNS.
Experiment [3] relates to MALME-3M melanoma.
Experiment [4] deals with UACC-62 melanoma.
For experiment [5], the system named is DU-145 prostate.
Experiment [6] concerns NCI-H460 lung.
The test system of experiment [7] is UO-31 renal.
Experiment [8] relates to HOP-92 NSCLC.
The test system of experiment [9] is OVCAR-3 ovarian.
Experiment [10] deals with MDA-MB-231 breast.

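Grown in 96-well plates, cells were treated for 48 hours with each compound at five concentrations. Insufficient inhibition: endpoint recorded as highest concentration tested. GI50 = concentration required for 50% inhibition of growth. TGI: total growth inhibition.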

Regarding `COc1cc(CN(c2ccc(C)cc2)C2OC(=O)c3ccccc32)cc(OC)c1OC` (stereo not given), the GI50 was 2.93 µM in [1]; 0.397 µM in experiment [2]; 0.582 µM in [4]; 0.491 µM in experiment [5]; 0.453 µM in experiment [6]; 2.7 µM in experiment [7]. Moreover, the GI50 in experiment [8] is 0.449 µM; in experiment [9] it was 0.328 µM; in experiment [10] it was 0.846 µM. Further, the TGI was greater than 100 µM in experiment [1]; greater than 100 µM in experiment [2]; greater than 100 µM in experiment [3]; greater than 100 µM in experiment [4]; greater than 76.6 µM in [5]; greater than 100 µM in [6]. Also, the TGI is greater than 100 µM in experiment [7], greater than 100 µM in [8], 13.7 µM in [9] and greater than 100 µM in experiment [10].
As to `COc1cc(-c2nccc3cc4c(cc23)OCO4)cc(OC)c1OC`, the GI50 in experiment [1] is greater than 100 µM; in [2], 4.86 µM; in experiment [3] it was 26.9 µM; in experiment [4] it was 4.55 µM; in [5] it was 3.87 µM; in [6], 3.83 µM. Further, the GI50 was 6.99 µM in experiment [7], 11.5 µM in experiment [8], 2.09 µM in [9] and 16.1 µM in experiment [10]. The TGI in experiment [1], in experiment [2], in [3], in experiment [4], in experiment [5] and in experiment [6] was greater than 100 µM in each case. The TGI in experiment [7] was greater than 100 µM; in experiment [8], greater than 100 µM; in experiment [9], 4.72 µM; in [10], greater than 100 µM.
Take `COc1ccc(-c2nn3ncccc3c2-c2ccnc(Nc3ccc4c(c3)OCCO4)n2)cc1`: the GI50 was 9.19 µM in [1]; 14.3 µM in [2]; 12.5 µM in experiment [3]; 5.23 µM in [4]; 8.19 µM in [5]; 8.74 µM in experiment [6]. Moreover, the GI50 in experiment [7] was 2.19 µM; in [8], 0.521 µM; in experiment [9], 9.86 µM; in [10], 6.55 µM. In addition, the TGI in experiment [1], in experiment [2], in experiment [3], in [4], in experiment [5] and in experiment [6] was greater than 25 µM in each case. For the same compound, the TGI is 16.7 µM in experiment [7], 10.6 µM in experiment [8], greater than 25 µM in experiment [9] and greater than 25 µM in experiment [10].
Regarding `O=C(Oc1ccccc1)C(Br)C(Br)c1ccccc1` (stereo not given), the GI50 in experiment [1] was 2.25 µM; in experiment [2], 4.13 µM; in experiment [4] it was 5.51 µM; in experiment [5], 3.18 µM; in experiment [6], 14.5 µM; in experiment [7] it was 1.72 µM. In addition, the results for the GI50 in experiment [8], in experiment [9] and in experiment [10] were 2.73 µM, 1.72 µM and 14.4 µM, respectively. Also, the TGI was 5.04 µM in experiment [1]; 15.8 µM in experiment [2]; 18.2 µM in experiment [4]; 9.38 µM in [5]; 29.8 µM in experiment [6]; 3.34 µM in experiment [7]. Also, the values for the TGI in experiment [8], in [9] and in experiment [10] were 7.52 µM, 3.14 µM and 29.6 µM, respectively.
For the compound `CC(C)(C)c1nc(-c2cccc(NS(=O)(=O)c3c(F)cccc3F)c2F)c(-c2ccnc(N)n2)s1`, the GI50 in experiment [1] was 50.5 µM; in [2], 45.5 µM; in experiment [5], 58.5 µM; in [6], 30.4 µM; in experiment [7], 0.46 µM; in experiment [8] it was 35.5 µM. In addition, the GI50 in experiment [9] is 35.6 µM; in experiment [10], 7.19 µM. The TGI in [1], in experiment [2], in experiment [5], in experiment [6], in [7] and in experiment [8] was greater than 100 µM in each case. The TGI was greater than 100 µM in experiment [9] and greater than 69.9 µM in experiment [10].
For the compound `Nc1ccccc1C(=O)NC(=O)Nc1ccc(Oc2ncc(Br)cn2)c(Cl)c1`, the TGI in experiment [1] came to 10.2 µM; in [2] it was 12.4 µM; in experiment [3], 11.6 µM; in [4] it was 4.33 µM; in experiment [5], 1.52 µM; in [6], 3.53 µM. The TGI came to 9.03 µM in [7], 6.66 µM in experiment [8] and 2.76 µM in experiment [10]. Also, the GI50 in experiment [4] is 0.00797 µM; in [8], 0.303 µM.
For the compound `Cc1cn2c(/C=N/N=C(N)N)c(-c3ccncc3)nc2s1`, the GI50 is 13.2 µM in experiment [1]; 17.8 µM in experiment [2]; 19 µM in [4]; 16.4 µM in experiment [5]; 16.8 µM in experiment [6]; 18.9 µM in experiment [7]. For the same compound, the GI50 was 13.4 µM in experiment [8], 17.5 µM in experiment [9] and 52.6 µM in experiment [10]. The TGI in experiment [1] worked out at 32 µM; in experiment [2] it was 31.6 µM; in experiment [4], 34.1 µM; in experiment [5], 31.2 µM; in [6], 30.4 µM; in [7] it was 43.7 µM. The TGI in [8] was 26.9 µM; in experiment [9], 33.6 µM; in experiment [10], greater than 100 µM.
As for `CC/C(Cc1ccccc1)=C(/c1ccc(O)cc1)c1ccc(OCCN2CCCC2)cc1`, the GI50 in experiment [1] is 2.08 µM; in [2] it was 1.69 µM; in experiment [4], 2.03 µM; in experiment [5] it was 1.94 µM; in experiment [6], 1.72 µM; in [7], 1.43 µM. Further, the GI50 in [8] was 1.61 µM; in experiment [9], 1.82 µM; in [10], 2.1 µM. Further, the TGI in experiment [1] is 5.18 µM; in experiment [2], 3.19 µM; in experiment [4], 4.12 µM; in experiment [5], 3.88 µM; in [6], 3.48 µM; in [7], 2.95 µM. Further, the values for the TGI in [8], in experiment [9] and in [10] were 3.26 µM, 3.46 µM and 4.05 µM, respectively.
